From patent US20220401440A1, “DOSING REGIMENS FOR A PROTEIN KINASE C INHIBITOR” (IDEAYA BIOSCIENCES, INC., priority 2019, published 2022)
Values joined by “and” are separate entries in the source; they are usually repeats but may differ in a detail not shown here. Equal values may be shown once. Read-outs that look alike come from different tables or passages of the source.

Test: Phase 1/2 study: plasma pharmacokinetics of Compound (I) in patients (LC-MS/MS, non-compartmental analysis)
Type: in vivo, human
Conditions: for Race: mean ± SD
Experimental: The following example presents a phase 1/2 study of Compound (I) in patients with solid tumors harboring GNAQ/11 mutations or PRKC fusions.
Patients with MUM were sequentially enrolled into Cohort 1 or Cohort 2. Enrollment into Cohort 2 was not initiated until enrollment into Cohort 1 was completed and the dose considered safe. • a. Cohort 1. 6 patients were sequentially enrolled and received 300 mg twice a day (BID), daily, for 28-day treatment cycles. • b. Cohort 2. 6 patients were sequentially enrolled and received 400 mg BID, preceded by an initial 7-day 200 mg BID run-in period, for 28-day treatment cycles. All patients continue to receive treatment with Compound (I) unless the subject experiences one or more of the following: • Adverse event • Lost to follow-up • Physician decision • Progressive disease • Study termination by the Sponsor • Patient/guardian decision • Protocol deviation • Non-compliance with protocol • Death • Pregnancy NUMBER OF SUBJECTS: 12 patients
The following example presents pharmacokinetic results from the study as described in Example 1.
Blood samples were collected on Cycle 1 Day 1 and Day 15 from patients who were administered 300 mg BID of Compound (I), and on Cycle 1 Day 8 and Day 22 from patients who were administered 200 mg BID for 7 days followed by 400 mg BID of Compound (I) for the remainder of the treatment cycle. The plasma samples were processed by protein precipitation (see Ahuja S and Dong M. W, Handbook of Pharmaceutical Analysis by HPLC, Elsevier Inc., Chapter 17, page 433, 2005) and analyzed using an LC-MS/MS method; Quantification was achieved using Compound (I) peak area to internal standard (3-amino-N-(3-(4-amino-4-(methyl-d3)piperidin-1-yl)pyridin-2-yl)-6-(3-(trifluoromethyl)pyridin-2-yl)pyrazine-2-carboxamide) peak area ratios. Concentrations of the calibration curve standards, quality control samples, and patient samples were determined by the method of 1/x^2 weighted least squares linear regression.
The Pharmacokinetic parameters were calculated using Phoenix WinNonlin software (non-compartmental analysis).

[1] = individual patients, 300 mg BID
[2] = individual patients, 300 mg BID, C1 Day 1
[3] = individual patients, 300 mg BID, C1 Day 15
[4] = individual patients, 400 mg BID with 200 mg run-in
[5] = individual patients, 400 mg BID with 200 mg run-in, C1 Day 8
[6] = individual patients, 400 mg BID with 200 mg run-in, C1 Day 22

Compound: CC1(N)CCN(c2cccnc2NC(=O)c2nc(-c3ncccc3C(F)(F)F)cnc2N)CC1 [Compound (I), 3-amino-N-(3-(4-amino-4-methylpiperidin-1-yl)pyridin-2-yl)-6-(3-(trifluoromethyl)pyridin-2-yl)pyrazine-2-carboxamide]
- Free AUC0-12 (mean free plasma) (300 mg BID): 260 ± 95 ng·h/mL
- Cmin (300 mg BID, Cycle 1 Day 15, mean ± SD, n = 12): 790 ± 345 ng/mL
- Race (300 mg BID, n = 12): 0.74 ± 0.31
- Free AUC0-12 (mean free plasma) (400 mg BID with 200 mg run-in): 396 ± 222 ng·h/mL
- Cmin (400 mg BID with 200 mg run-in, Cycle 1 Day 22, mean ± SD, n = 24): 1120 ± 806 ng/mL
- Race (400 mg BID with 200 mg run-in, n = 24): 0.97 ± 0.29
- mean exposure on C1D8 (200 mg BID 7 days then 400 mg BID) compared to C1D1 of 300 mg BID (human, in vivo): lower mean exposure
- mean free plasma AUC0-12, higher at 400 mg BID with 200 mg run-in than at 300 mg BID (human, in vivo): about 44%
- AUC(0-t) (human, plasma, oral, 300 mg, 300 mg BID, Cycle 1 Day 1, mean ± SD, n = 12, read-out: AUC0-12): 26200 ± 11100 ng·h/mL
- Cmax (human, plasma, oral, 300 mg, 300 mg BID, Cycle 1 Day 1, mean ± SD, n = 12, read-out: Cmax): 4600 ± 2300 ng/mL
- AUC(0-t) (human, plasma, oral, 300 mg, 300 mg BID, Cycle 1 Day 15, mean ± SD, n = 12, read-out: AUC0-12): 16800 ± 5380 ng·h/mL
- Cmax (human, plasma, oral, 300 mg, 300 mg BID, Cycle 1 Day 15, mean ± SD, n = 12, read-out: Cmax): 2860 ± 690 ng/mL
- AUC(0-t) (human, plasma, oral, 300 mg, individual patient 10001-00022, 300 mg BID, C1 Day 1 (footnote a: AUC0-8), read-out: AUC0-8): 35900 ng·h/mL
- AUC(0-t) (human, plasma, oral, 400 mg BID, 400 mg BID with 200 mg run-in, Cycle 1 Day 8, mean ± SD, n = 24, read-out: AUC0-12): 24400 ± 12100 ng·h/mL
- Cmax (human, plasma, oral, 400 mg BID, 400 mg BID with 200 mg run-in, Cycle 1 Day 8, mean ± SD, n = 24, read-out: Cmax): 3930 ± 1880 ng/mL
- AUC(0-t) (human, plasma, oral, 400 mg BID, 400 mg BID with 200 mg run-in, Cycle 1 Day 22, mean ± SD, n = 24, read-out: AUC0-12): 21500 ± 10800 ng·h/mL
- Cmax (human, plasma, oral, 400 mg BID, 400 mg BID with 200 mg run-in, Cycle 1 Day 22, mean ± SD, n = 24, read-out: Cmax): 3580 ± 1390 ng/mL
- AUC ratio D15/D1 [1]: 0.83 and 0.87 and 1.53 and 0.67 and 1.1 and 0.66 (2×) and 0.44 and 0.51 and 0.41 and 0.62 and 1.22 and 0.61
- Cmin on C1D15 [1]: 645 ng/mL and 626 ng/mL and 175 ng/mL and 792 ng/mL and 1075 ng/mL and 1212 ng/mL and 1088 ng/mL and 798 ng/mL and 322 ng/mL and 1337 ng/mL and 1549 ng/mL and 715 ng/mL and 699 ng/mL
- AUC0-12 [2]: 22974 ng·h/mL and 17983 ng·h/mL and 3597 ng·h/mL and 22480 ng·h/mL and 19439 ng·h/mL and 43190 ng·h/mL and 35321 ng·h/mL and 26969 ng·h/mL and 39949 ng·h/mL and 233274 ng·h/mL and 26345 ng·h/mL and 19768 ng·h/mL
- Cmax [2]: 3159 ng/mL and 2980 ng/mL and 607 ng/mL and 3147 ng/mL and 4367 ng/mL and 8940 ng/mL and 7009 ng/mL and 5386 ng/mL and 6252 ng/mL and 5549 ng/mL and 3866 ng/mL and 5523 ng/mL and 2256 ng/mL
- Tmax [2]: 4 h and 2 h and 1 h and 0.5 h
- AUC0-12 [3]: 19049 ng·h/mL and 15640 ng·h/mL and 5511 ng·h/mL and 15071 ng·h/mL and 21194 ng·h/mL and 23600 ng·h/mL and 19185 ng·h/mL and 17909 ng·h/mL and 10949 ng·h/mL and 24582 ng·h/mL and 28493 ng·h/mL and 16155 ng·h/mL and 13083 ng·h/mL
- Cmax [3]: 3965 ng/mL and 2149 ng/mL and 1392 ng/mL and 3079 ng/mL and 2984 ng/mL and 3442 ng/mL and 2782 ng/mL and 2574 ng/mL and 2969 ng/mL and 3618 ng/mL and 4203 ng/mL and 2348 ng/mL and 2971 ng/mL
- Tmax [3]: 0.5 h and 1 h and 2 h
- AUC ratio D22/D8 [4]: 1.3 (3×) and 1.1 (2×) and 0.84 and 0.66 and 0.75 and 1.0 (3×) and 0.85 and 0.95 and 0.59 and 0.88 and 1.5 and 0.42 and 1.2 and 0.64 and 0.70 and 1.4
- Cmin on C1D22 [4]: 1019 ng/mL and 969 ng/mL and 931 ng/mL and 497 ng/mL and 533 ng/mL and 674 ng/mL and 916 ng/mL and 777 ng/mL and 179 ng/mL and 1631 ng/mL and 334 ng/mL and 1110 ng/mL and 264 ng/mL and 3140 ng/mL and 1082 ng/mL and 1887 ng/mL and 478 ng/mL and 1912 ng/mL and 1592 ng/mL and 2909 ng/mL and 677 ng/mL
- AUC0-12 [5]: 17779 ng·h/mL and 19720 ng·h/mL and 22367 ng·h/mL and 23416 ng·h/mL and 16365 ng·h/mL and 28796 ng·h/mL and 13072 ng·h/mL and 56156 ng·h/mL and 22089 ng·h/mL and 23178 ng·h/mL and 18745 ng·h/mL and 6311 ng·h/mL and 38119 ng·h/mL and 13309 ng·h/mL and 22361 ng·h/mL and 10348 ng·h/mL and 32689 ng·h/mL and 48672 ng·h/mL and 23856 ng·h/mL and 17650 ng·h/mL and 43163 ng·h/mL and 23378 ng·h/mL and 30601 ng·h/mL and 13604 ng·h/mL
- Cmax [5]: 2068 ng/mL and 2948 ng/mL and 2077 ng/mL and 7600 ng/mL and 2121 ng/mL and 2580 ng/mL and 1949 ng/mL and 7450 ng/mL and 3838 ng/mL and 6560 ng/mL and 4478 ng/mL and 1922 ng/mL and 6872 ng/mL and 4037 ng/mL and 2949 ng/mL and 2603 ng/mL and 3474 ng/mL and 7043 ng/mL and 2520 ng/mL and 2531 ng/mL and 4952 ng/mL and 4452 ng/mL and 4329 ng/mL and 3053 ng/mL
- Tmax [5]: 2 h and 1 h and 6 h and 0.5 h and 4 h
- AUC0-12 [6]: 22282 ng·h/mL and 21010 ng·h/mL and 18847 ng·h/mL and 15424 ng·h/mL and 12278 ng·h/mL and 13221 ng·h/mL and 18705 ng·h/mL and 20068 ng·h/mL and 6604 ng·h/mL and 36219 ng·h/mL and 7788 ng·h/mL and 19634 ng·h/mL and 10656 ng·h/mL and 48381 ng·h/mL and 20635 ng·h/mL and 28583 ng·h/mL and 11327 ng·h/mL and 30027 ng·h/mL and 32888 ng·h/mL and 38889 ng·h/mL and 18178 ng·h/mL
- Cmax [6]: 2556 ng/mL and 2756 ng/mL and 1709 ng/mL and 5026 ng/mL and 2562 ng/mL and 1911 ng/mL and 2853 ng/mL and 2578 ng/mL and 5948 ng/mL and 2203 ng/mL and 2403 ng/mL and 1992 ng/mL and 5663 ng/mL and 5314 ng/mL and 3276 ng/mL and 4296 ng/mL and 5657 ng/mL and 5617 ng/mL and 3676 ng/mL and 3890 ng/mL
